Test results reported in ChEMBL document CHEMBL3425500, “Perspective: Tyrosine phosphatases as novel targets for antiplatelet therapy” (Bioorg Med Chem, 2015).
pIC50, pKi: −log10 of the molar value.

Key:
[1] = biological target: Dual specificity protein phosphatase 3 (Homo sapiens, UniProt P51452); assay: Inhibition of recombinant VHR (unknown origin) using OMFP as substrate after 1 hr by fluorescence assay
[2] = biological target: T1, Receptor-type tyrosine-protein phosphatase R (Homo sapiens, UniProt Q15256); assay: Inhibition of recombinant PTP-SL (unknown origin) using OMFP as substrate after 1 hr by fluorescence assay
T1 sequence (Q15256 whole entry): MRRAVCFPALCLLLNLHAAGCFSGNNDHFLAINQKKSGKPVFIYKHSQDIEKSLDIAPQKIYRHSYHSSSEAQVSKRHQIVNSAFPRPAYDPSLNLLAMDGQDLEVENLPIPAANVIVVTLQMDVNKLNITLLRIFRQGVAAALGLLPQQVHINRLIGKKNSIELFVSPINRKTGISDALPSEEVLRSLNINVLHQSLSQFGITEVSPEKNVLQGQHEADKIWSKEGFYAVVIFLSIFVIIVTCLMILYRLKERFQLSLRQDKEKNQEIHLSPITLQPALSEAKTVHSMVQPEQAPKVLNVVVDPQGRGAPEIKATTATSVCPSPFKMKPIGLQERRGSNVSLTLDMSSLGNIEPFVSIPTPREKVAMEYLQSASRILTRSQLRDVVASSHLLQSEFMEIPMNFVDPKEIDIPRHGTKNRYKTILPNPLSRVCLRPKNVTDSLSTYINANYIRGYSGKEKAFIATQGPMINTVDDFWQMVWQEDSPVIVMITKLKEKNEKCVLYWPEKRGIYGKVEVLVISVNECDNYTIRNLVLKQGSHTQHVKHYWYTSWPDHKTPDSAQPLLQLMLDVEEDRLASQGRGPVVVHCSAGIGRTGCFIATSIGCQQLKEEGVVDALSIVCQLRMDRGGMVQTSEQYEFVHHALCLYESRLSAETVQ

[3] = biological target: T2, Dual specificity protein phosphatase 22 (Homo sapiens, UniProt Q9NRW4); assay: Inhibition of recombinant VHX (unknown origin) using OMFP as substrate after 1 hr by fluorescence assay
T2 sequence (Q9NRW4 whole entry): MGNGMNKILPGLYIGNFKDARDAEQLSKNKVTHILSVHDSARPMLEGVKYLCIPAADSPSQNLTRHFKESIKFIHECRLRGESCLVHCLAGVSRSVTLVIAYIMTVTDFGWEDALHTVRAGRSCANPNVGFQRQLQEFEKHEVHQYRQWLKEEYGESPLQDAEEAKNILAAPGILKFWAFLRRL

[4] = biological target: T3, Tyrosine-protein phosphatase non-receptor type 7 (Homo sapiens, UniProt P35236); assay: Inhibition of recombinant HePTP (unknown origin) using OMFP as substrate after 1 hr by fluorescence assay
T3 sequence (P35236 whole entry): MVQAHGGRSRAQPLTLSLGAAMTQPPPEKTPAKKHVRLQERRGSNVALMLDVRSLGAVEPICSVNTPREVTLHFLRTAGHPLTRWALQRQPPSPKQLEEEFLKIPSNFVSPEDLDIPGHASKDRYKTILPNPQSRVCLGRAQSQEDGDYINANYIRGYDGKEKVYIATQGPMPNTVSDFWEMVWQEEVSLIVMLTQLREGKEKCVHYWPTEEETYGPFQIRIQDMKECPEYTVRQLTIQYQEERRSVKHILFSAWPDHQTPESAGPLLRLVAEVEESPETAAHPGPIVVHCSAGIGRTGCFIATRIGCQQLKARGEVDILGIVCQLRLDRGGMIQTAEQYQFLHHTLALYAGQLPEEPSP

[5] = biological target: T4, Tyrosine-protein phosphatase non-receptor type 22 (Homo sapiens, UniProt Q9Y2R2); assay: Inhibition of recombinant LYP (unknown origin) using OMFP as substrate after 1 hr by fluorescence assay
T4 sequence (Q9Y2R2 whole entry): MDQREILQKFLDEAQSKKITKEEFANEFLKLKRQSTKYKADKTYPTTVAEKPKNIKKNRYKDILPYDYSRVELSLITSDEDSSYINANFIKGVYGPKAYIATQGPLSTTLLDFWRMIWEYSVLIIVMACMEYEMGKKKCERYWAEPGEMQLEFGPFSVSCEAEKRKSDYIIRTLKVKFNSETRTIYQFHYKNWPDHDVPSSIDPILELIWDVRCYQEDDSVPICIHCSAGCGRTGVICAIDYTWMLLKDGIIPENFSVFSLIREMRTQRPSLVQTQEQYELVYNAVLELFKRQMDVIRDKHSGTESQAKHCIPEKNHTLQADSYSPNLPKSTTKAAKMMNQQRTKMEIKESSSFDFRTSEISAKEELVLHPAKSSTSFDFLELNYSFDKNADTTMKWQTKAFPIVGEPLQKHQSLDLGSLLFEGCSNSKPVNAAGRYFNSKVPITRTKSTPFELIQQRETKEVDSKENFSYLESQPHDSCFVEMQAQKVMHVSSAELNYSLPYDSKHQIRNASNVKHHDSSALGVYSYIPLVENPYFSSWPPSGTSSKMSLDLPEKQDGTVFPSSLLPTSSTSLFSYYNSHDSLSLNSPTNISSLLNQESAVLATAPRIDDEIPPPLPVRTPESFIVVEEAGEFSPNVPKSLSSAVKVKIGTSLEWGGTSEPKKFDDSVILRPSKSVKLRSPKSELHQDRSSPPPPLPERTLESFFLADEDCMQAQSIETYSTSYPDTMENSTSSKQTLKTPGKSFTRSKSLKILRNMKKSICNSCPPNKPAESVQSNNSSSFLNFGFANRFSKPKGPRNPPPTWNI

[6] = biological target: T5, Tyrosine-protein phosphatase non-receptor type 2 (Homo sapiens, UniProt P17706); assay: Inhibition of recombinant TCPTP (unknown origin) using OMFP as substrate after 1 hr by fluorescence assay
T5 sequence (P17706 whole entry): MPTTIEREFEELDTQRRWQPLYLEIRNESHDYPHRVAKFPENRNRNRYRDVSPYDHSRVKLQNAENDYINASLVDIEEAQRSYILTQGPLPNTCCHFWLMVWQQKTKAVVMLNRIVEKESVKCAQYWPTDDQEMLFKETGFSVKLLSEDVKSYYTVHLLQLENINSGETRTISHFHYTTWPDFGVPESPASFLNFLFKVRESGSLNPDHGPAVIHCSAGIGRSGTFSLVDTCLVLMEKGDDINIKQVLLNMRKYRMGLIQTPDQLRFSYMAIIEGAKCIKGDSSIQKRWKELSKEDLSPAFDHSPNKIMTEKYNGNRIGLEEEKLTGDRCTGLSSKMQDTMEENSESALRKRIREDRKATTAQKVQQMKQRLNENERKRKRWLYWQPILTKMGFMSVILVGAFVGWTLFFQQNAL

[7] = biological target: T6, Receptor-type tyrosine-protein phosphatase C (Homo sapiens, UniProt P08575); assay: Inhibition of recombinant CD45 (unknown origin) using OMFP as substrate after 1 hr by fluorescence assay
T6 sequence (P08575 whole entry): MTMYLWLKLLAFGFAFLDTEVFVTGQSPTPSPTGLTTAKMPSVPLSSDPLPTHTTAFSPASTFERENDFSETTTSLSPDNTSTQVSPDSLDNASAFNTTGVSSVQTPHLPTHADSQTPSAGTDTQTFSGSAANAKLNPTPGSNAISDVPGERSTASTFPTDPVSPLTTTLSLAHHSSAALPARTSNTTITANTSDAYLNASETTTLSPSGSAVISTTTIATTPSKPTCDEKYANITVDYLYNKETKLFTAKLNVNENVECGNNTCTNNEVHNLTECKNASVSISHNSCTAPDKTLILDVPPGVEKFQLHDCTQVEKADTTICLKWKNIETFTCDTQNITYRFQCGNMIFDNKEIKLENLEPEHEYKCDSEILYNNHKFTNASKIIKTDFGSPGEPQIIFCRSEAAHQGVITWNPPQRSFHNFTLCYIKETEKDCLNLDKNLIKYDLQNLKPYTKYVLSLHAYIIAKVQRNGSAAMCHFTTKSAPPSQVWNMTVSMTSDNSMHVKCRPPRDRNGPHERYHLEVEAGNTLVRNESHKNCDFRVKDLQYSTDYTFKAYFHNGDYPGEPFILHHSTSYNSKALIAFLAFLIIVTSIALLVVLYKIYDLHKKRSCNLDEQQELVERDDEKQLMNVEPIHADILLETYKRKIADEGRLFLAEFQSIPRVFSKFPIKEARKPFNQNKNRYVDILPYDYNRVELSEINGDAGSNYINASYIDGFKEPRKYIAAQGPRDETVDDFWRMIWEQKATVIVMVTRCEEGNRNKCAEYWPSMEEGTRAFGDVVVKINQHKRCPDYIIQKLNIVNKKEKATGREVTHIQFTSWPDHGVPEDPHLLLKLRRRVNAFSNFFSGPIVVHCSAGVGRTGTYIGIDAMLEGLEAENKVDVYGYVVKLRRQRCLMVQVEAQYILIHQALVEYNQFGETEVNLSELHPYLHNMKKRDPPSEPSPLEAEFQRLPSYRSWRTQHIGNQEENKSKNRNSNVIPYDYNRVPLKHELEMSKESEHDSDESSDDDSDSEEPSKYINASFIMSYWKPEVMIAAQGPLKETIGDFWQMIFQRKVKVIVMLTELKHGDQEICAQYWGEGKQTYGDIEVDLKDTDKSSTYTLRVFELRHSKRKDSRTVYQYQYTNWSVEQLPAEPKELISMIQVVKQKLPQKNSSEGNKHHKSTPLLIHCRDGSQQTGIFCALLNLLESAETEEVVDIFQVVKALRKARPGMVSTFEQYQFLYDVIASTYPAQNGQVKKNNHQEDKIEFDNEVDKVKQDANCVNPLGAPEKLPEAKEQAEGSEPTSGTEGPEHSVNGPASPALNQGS

[8] = biological target: Receptor-type tyrosine-protein phosphatase F (Homo sapiens, UniProt P10586); assay: Inhibition of recombinant LAR (unknown origin) using OMFP as substrate after 1 hr by fluorescence assay
Chain of Receptor-type tyrosine-protein phosphatase F (P10586 whole entry): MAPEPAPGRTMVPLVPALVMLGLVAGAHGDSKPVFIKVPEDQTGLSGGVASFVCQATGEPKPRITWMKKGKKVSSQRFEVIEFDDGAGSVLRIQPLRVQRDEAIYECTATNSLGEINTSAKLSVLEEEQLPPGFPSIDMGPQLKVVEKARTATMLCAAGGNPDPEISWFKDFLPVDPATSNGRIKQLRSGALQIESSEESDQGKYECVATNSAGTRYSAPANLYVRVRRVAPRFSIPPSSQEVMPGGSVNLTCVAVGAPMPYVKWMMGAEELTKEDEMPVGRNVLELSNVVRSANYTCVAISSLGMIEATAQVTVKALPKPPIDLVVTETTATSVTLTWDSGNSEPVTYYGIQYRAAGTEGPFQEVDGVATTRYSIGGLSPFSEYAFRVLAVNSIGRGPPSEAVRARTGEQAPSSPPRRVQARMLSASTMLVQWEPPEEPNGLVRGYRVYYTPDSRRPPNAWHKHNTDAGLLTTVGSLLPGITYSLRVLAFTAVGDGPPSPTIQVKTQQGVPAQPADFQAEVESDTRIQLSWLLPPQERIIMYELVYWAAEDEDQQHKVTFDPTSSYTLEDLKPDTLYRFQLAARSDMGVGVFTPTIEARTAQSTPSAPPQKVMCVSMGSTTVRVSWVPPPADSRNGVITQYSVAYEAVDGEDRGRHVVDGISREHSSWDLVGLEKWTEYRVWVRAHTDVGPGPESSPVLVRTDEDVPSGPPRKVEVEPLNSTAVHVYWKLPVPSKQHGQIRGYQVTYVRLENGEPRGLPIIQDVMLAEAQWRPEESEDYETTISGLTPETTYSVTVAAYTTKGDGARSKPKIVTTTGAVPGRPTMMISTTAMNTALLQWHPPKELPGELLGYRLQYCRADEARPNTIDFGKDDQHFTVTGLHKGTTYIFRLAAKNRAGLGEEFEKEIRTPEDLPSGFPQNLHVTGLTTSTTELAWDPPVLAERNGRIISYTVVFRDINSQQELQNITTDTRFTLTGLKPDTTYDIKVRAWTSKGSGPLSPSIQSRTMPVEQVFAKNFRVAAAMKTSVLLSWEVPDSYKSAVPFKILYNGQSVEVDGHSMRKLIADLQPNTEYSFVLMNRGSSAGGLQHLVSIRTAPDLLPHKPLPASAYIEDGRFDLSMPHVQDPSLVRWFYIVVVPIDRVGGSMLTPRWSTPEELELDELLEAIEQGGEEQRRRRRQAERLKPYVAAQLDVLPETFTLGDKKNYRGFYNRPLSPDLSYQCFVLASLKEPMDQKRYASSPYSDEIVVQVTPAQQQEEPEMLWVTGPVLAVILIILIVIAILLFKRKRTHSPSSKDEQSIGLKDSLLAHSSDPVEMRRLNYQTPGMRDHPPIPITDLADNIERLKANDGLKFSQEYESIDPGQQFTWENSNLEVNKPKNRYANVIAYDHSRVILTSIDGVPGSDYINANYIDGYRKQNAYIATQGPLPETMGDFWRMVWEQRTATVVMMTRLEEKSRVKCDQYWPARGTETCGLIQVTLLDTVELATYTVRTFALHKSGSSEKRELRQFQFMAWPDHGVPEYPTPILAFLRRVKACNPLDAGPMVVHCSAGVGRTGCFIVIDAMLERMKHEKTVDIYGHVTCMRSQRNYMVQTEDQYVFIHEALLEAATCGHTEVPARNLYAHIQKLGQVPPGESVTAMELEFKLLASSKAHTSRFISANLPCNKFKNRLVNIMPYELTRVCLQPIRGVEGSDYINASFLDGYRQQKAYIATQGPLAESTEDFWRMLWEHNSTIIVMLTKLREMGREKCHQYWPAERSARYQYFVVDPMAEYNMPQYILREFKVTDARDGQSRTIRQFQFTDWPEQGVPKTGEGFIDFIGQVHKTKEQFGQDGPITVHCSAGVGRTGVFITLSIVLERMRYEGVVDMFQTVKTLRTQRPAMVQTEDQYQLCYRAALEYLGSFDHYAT

[9] = biological target: T7, Tyrosine-protein phosphatase non-receptor type 5 (Homo sapiens, UniProt P54829); assay: Inhibition of recombinant STEP (unknown origin) using OMFP as substrate after 1 hr by fluorescence assay
T7 sequence (P54829 whole entry): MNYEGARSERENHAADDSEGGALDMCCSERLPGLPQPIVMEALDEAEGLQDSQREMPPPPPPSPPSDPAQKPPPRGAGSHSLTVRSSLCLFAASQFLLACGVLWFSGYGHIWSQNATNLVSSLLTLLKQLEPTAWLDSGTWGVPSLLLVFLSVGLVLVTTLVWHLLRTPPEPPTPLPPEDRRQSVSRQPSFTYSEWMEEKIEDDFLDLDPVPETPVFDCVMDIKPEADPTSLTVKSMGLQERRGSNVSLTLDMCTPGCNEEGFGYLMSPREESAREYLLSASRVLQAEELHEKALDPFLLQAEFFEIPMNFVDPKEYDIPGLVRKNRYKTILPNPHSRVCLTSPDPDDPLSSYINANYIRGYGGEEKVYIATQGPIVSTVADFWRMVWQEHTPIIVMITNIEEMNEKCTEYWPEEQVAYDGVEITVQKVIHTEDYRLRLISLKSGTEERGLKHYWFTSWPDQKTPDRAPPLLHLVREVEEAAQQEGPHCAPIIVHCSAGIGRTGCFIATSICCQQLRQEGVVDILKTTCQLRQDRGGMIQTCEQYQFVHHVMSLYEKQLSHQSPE

[10] = biological target: T8, Tyrosine-protein phosphatase non-receptor type 1 (Homo sapiens, UniProt P18031); assay: Inhibition of recombinant PTP1B (unknown origin) using OMFP as substrate after 1 hr by fluorescence assay
T8 sequence (P18031 whole entry): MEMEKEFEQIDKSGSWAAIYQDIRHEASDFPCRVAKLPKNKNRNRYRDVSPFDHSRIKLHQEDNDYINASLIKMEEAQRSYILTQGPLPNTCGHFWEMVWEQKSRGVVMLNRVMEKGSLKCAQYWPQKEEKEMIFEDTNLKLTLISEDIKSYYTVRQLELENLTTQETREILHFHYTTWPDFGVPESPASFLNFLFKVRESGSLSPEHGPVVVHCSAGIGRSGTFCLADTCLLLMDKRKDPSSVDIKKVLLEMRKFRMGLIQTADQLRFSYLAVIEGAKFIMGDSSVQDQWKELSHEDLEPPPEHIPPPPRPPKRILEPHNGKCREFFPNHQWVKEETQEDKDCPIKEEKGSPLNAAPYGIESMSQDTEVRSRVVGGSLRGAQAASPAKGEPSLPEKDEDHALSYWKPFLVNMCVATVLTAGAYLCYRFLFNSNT

[11] = biological target: T9, Dual specificity protein phosphatase 6 (Homo sapiens, UniProt Q16828); assay: Inhibition of recombinant MKP3 (unknown origin) using OMFP as substrate after 1 hr by fluorescence assay
T9 sequence (Q16828 whole entry): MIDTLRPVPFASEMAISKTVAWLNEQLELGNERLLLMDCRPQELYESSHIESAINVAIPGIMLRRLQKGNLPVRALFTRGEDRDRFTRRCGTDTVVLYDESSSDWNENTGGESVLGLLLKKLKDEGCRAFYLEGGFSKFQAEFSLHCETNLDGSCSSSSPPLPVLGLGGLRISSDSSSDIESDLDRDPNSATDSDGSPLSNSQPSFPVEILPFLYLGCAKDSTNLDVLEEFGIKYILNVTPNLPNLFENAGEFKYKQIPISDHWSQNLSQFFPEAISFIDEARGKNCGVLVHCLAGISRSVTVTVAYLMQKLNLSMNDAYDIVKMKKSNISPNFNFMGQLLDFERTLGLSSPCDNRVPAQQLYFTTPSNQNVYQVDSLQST

[12] = biological target: T8, Tyrosine-protein phosphatase non-receptor type 1; assay: Competitive inhibition of PTP1B (unknown origin)
[13] = biological target: T8, Tyrosine-protein phosphatase non-receptor type 1; assay: Inhibition of recombinant human PTP1B assessed as hydrolysis of DiFMUP preincubated for 10 mins followed by DiFMUP addition measured after 5 mins by fluorescence assay

Chain of Dual specificity protein phosphatase 3 (P51452 whole entry): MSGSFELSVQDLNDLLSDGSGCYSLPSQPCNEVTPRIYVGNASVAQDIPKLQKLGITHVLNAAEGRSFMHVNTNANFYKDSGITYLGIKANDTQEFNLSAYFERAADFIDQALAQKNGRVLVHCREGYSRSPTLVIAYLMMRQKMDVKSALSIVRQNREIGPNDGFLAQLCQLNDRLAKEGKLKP

COc1ccc(-c2nnc(Nc3nc4c(OC)cccc4s3)o2)cc1
pIC50 [1]: 5.57

COc1ccc(-c2nnc(Nc3nc4c(F)cccc4s3)o2)cc1
pIC50 [2]: 4.89 | pIC50 [3]: 4.59 | pIC50 [4]: 4.42 | pIC50 [5]: 4.31 | pIC50 [6]: 4.26 | pIC50 [7]: < 4.00 | pIC50 [8]: < 4.00 | pIC50 [9]: < 4.00 | pIC50 [10]: < 4.00 | pIC50 [11]: < 4.00

CCCCCCCCCCCCCCC(=O)N[C@@H](Cc1ccc(C(F)(F)P(=O)(O)O)cc1)C(=O)N[C@@H](CC(=O)O)C(=O)N[C@@H](Cc1ccc(C(F)(F)P(=O)(O)O)cc1)C(N)=O
pKi [12]: 7.59

CN1C(=O)/C(=C\c2ccc(OCc3ccc(C4CCCCC4)cc3)cc2)S/C1=N/c1ccc(CC(=O)O)cc1
pIC50 [13]: 6.62
